The molecules below were run against T1, GST-JAK2(808-1132) (Homo sapiens, UniProt O60674) (assay: JAK2 kinase assay (Caliper mobility shift, LabChip 3000)).
T1 construct: GST-JAK2(808-1132); purchased Invitrogen (Carlsbad, USA) #4288
Assay type: biochemical
Text: All four kinases of the JAK/TYK-kinase family were used as purified recombinant GST-fusion proteins, containing the active kinase domains. GST-JAK1 (866-1154), GST-JAK3(811-1124), and GST-TYK2(888-1187) were expressed and purified by affinity chromatography at the EPK biology unit. GST-JAK2(808-1132) was purchased from Invitrogen (Carlsbad, USA, #4288).
The kinase assays were based on the Caliper mobility shift assay using the LabChip 3000 systems. This technology is similar to capillary electrophoresis and uses charge driven separation of substrate and product in a microfluidic chip.
All kinase reactions were performed in 384 well microtiter plates in a total reaction volume of 18 μl. The assay plates were prepared with 0.1 μl per well of test compound in the appropriate test concentration, as described under the section “preparation of compound dilutions”. The reactions were started by combining 9 μl of substrate mix (consisting of peptide and ATP) with 9 μl of kinase dilution. The reactions were incubated for 60 minutes at 30° C. and stopped by adding 70 μl of stop buffer (100 mM Hepes, 5% DMSO, 0.1% Coating reagent, 10 mM EDTA, 0.015% Brij 35).
Fluorescently labeled synthetic peptides were used as substrates in all reactions. A peptide derived from the sequence of IRS-1(IRS-1 peptide, SEQ ID NO: 1 FITC-Ahx-KKSRGDYMTMQIG-NH2) was used for JAK1 and TYK2 and a peptide named JAK3tide SEQ ID NO: 2 (FITC-GGEEEEYFELVKKKK-NH2) for JAK2 and JAK3. Specific assay conditions are described in Table1:
The terminated reactions were transferred to the Caliper LabChip 3000 reader and the turnover of each reaction was measured by determining the substrate/product ratio.
Test compounds were dissolved in DMSO (10 mM) and transferred into 1.4 mL flat bottom or V-shaped Matrix tubes carrying a unique 2D matrix chip by individual compound hubs. The numbers of these chips were distinctively linked to the individual compound identification numbers. The stock solutions were stored at −20° C. if not used immediately. For the test procedure the vials were defrosted and identified by a scanner whereby a working sheet was generated that guided the subsequent working steps. Compound dilutions were made in 96 well plates. This format enabled the assay of maximally 40 individual test compounds at 8 concentrations (single points) including 4 reference compounds. The dilution protocol included the production of pre-dilution plates, master plates and assay plates:
Pre-dilution plates: 96 polypropylene well plates were used as pre-dilution plates. A total of 4 pre-dilution plates were prepared including 10 test compounds each on the plate positions A1-A10, one standard compound at A11 and one DMSO control at A12. All dilution steps were done on a HamiltonSTAR robot.
Master plates: 100 μL of individual compound dilutions including standard compound and controls of the 4 “pre-dilution plates” were transferred into a 384 “master plate” including the following concentrations 1,820, […], 182, 54.6, 18.2, 5.46, 1.82 and 0.546 μM, respectively in 90% of DMSO.
Assay plates: Identical assay plates were then prepared by pipetting 100 nL each of compound dilutions of the master plates into 384-well “assay plates”. In the following the compounds were mixed with 9 μL of assays components plus 9 μL enzyme corresponding to a 1:181 dilution steps enabling the final concentration of 10, 3.0, 1.0, 0.3, 0.1, 0.03, 0.01 and 0.003 μM, respectively. The preparation of the master plates were handled by the Matrix PlateMate Plus robot and replication of assay plates by the HummingBird robot.

T1 sequence (O60674 808-1132): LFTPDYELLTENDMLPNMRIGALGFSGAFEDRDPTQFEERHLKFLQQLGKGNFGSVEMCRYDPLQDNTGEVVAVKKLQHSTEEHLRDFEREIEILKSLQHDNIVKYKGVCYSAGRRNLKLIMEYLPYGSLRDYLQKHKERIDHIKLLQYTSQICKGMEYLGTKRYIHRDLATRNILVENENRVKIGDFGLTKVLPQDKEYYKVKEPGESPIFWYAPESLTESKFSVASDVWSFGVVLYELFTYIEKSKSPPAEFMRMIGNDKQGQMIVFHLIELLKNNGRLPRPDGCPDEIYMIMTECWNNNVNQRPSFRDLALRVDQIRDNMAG

| SMILES | IC50 [nM] |
| --- | --- |
| O=C(c1ccc(-n2ccc3cnc(Nc4ccc(C(F)(F)F)nc4)nc32)cc1F)N1CCOCC1 [Example 227, {2-Fluoro-4-[2-(6-trifluoromethyl-pyridin-3-ylamino)-pyrrolo[2,3-d]pyrimidin-7-yl]-phenyl}-morpholin-4-yl-methanone] | 41.5 |
| Cc1ccc(Nc2ncc3ccn(-c4ccc(S(N)(=O)=O)cc4)c3n2)cc1CN1CCN(C)CC1 [Example 368, 4-{2-[4-Methyl-3-(4-methyl-piperazin-1-ylmethyl)-phenylamino]-pyrrolo[2,3-d]pyrimidin-7-yl}-benzenesulfonamide] | 3.2 |
| CN1CCN(c2ccc(Nc3ncc4ccn(-c5cc(F)c(CN6CCNC(=O)C6)c(F)c5)c4n3)cc2)CC1 [Example 341, 4-(2,6-Difluoro-4-{2-[4-(4-methyl-piperazin-1-yl)-phenylamino]-pyrrolo[2,3-d]pyrimidin-7-yl}-benzyl)-piperazin-2-one] | ≤ 3 |
| CS(=O)(=O)c1ccc(-n2ccc3cnc(Nc4ccc(F)cc4)nc32)cc1 [Example 55, (4-Fluoro-phenyl)-[7-(4-methanesulfonyl-phenyl)-7H-pyrrolo[2,3-d]pyrimidin-2-yl]-amine] | 20 |
| COc1ccc(Nc2ncc3ccn(-c4ccc(S(C)(=O)=O)cc4)c3n2)cc1OCCN(C)C [Example 26, [3-(2-Dimethylamino-ethoxy)-4-methoxy-phenyl]-[7-(4-methanesulfonyl-phenyl)-7H-pyrrolo[2,3-d]pyrimidin-2-yl]-amine] | < 3 |
| OC1CCN(Cc2cc(Nc3ncc4ccn(-c5cc(F)c(CN6CCOCC6)c(F)c5)c4n3)ccn2)C1 (racemic) [Example 416, 1-{4-[7-(3,5-Difluoro-4-morpholin-4-ylmethyl-phenyl)-7H-pyrrolo[2,3-d]pyrimidin-2-ylamino]-pyridin-2-ylmethyl}-pyrrolidin-3-ol] | ≤ 3 |
| O=C1NC(c2ccc(Nc3ncc4ccn(-c5cc(F)c(CN6CCOCC6)c(F)c5)c4n3)cc2)CN2CCCCC12 (stereo not shown) [Example 389, 3-{4-[7-(3,5-Difluoro-4-morpholin-4-ylmethyl-phenyl)-7H-pyrrolo[2,3-d]pyrimidin-2-ylamino]-phenyl}-hexahydro-pyrido[1,2-a]pyrazin-1-one] | ≤ 3 |
| Cc1ccc(Nc2ncc3ccn(-c4ccc(C(=O)N5CCOCC5)c(F)c4)c3n2)cc1CN1CCOCC1 [Example 327, {2-Fluoro-4-[2-(4-methyl-3-morpholin-4-ylmethyl-phenylamino)-pyrrolo[2,3-d]pyrimidin-7-yl]-phenyl}-morpholin-4-yl-methanone] | < 3 |
| Fc1cc(-n2ccc3cnc(Nc4cnn(C5CCNCC5)c4)nc32)cc(F)c1CN1CCOCC1 [Example 321, [7-(3,5-Difluoro-4-morpholin-4-ylmethyl-phenyl)-7H-pyrrolo[2,3-d]pyrimidin-2-yl]-(1-piperidin-4-yl-1H-pyrazol-4-yl)-amine] | < 3 |
| CC(C)(C)NS(=O)(=O)c1ccc(-n2ccc3cnc(Nc4ccc(CN5CCN(C6CC6)CC5)cc4)nc32)cc1 [Example 345, N-tert-Butyl-4-{2-[4-(4-cyclopropyl-piperazin-1-ylmethyl)-phenylamino]-pyrrolo[2,3-d]pyrimidin-7-yl}-benzenesulfonamide] | 3.3 |
| CC(C)(C)OC(=O)N1CCN(Cc2ccc(Nc3ncc4ccn(-c5ccc(S(C)(=O)=O)cc5)c4n3)cc2)CC1 [Example 45, 4-{4-[7-(4-Methanesulfonyl-phenyl)-7H-pyrrolo[2,3-d]pyrimidin-2-ylamino]-benzyl}-piperazine-1-carboxylic acid tert-butyl ester] | 6.1 |
| O=C(c1ccc(-n2ccc3cnc(Nc4ccc(CN5CCNCC5)cc4)nc32)cc1F)N1CCOCC1 [Example 313, {2-Fluoro-4-[2-(4-piperazin-1-ylmethyl-phenylamino)-pyrrolo[2,3-d]pyrimidin-7-yl]-phenyl}-morpholin-4-yl-methanone] | 3.7 |
| CS(=O)(=O)c1ccc(-n2ccc3cnc(Nc4ccc(N5CCNCC5)nc4)nc32)cc1 [Example 282, [7-(4-Methanesulfonyl-phenyl)-7H-pyrrolo[2,3-d]pyrimidin-2-yl]-(6-piperazin-1-yl-pyridin-3-yl)-amine] | 82 |
| C[C@@H]1CN[C@@H](C)CN1c1ccc(Nc2ncc3ccn(-c4ccc(S(N)(=O)=O)cc4)c3n2)cn1 (racemic) [Example 357, 4-{2-[6-((2R,5S)-2,5-Dimethyl-piperazin-1-yl)-pyridin-3-ylamino]-pyrrolo[2,3-d]pyrimidin-7-yl}-benzenesulfonamide] | 6.9 |
| Cc1ccc(Nc2ncc3ccn(-c4cc(F)c(CN5CCOCC5)c(F)c4)c3n2)cc1Cn1cc(CCO)cn1 [Example 467, 2-(1-{5-[7-(3,5-Difluoro-4-morpholin-4-ylmethyl-phenyl)-7H-pyrrolo[2,3-d]pyrimidin-2-ylamino]-2-methyl-benzyl}-1H-pyrazol-4-yl)-ethanol] | 4.6 |
| CN1CCN(CCOc2cccc(Nc3ncc4ccn(-c5ccc(S(C)(=O)=O)cc5)c4n3)c2)CC1 [Example 32, [7-(4-Methanesulfonyl-phenyl)-7H-pyrrolo[2,3-d]pyrimidin-2-yl]-{3-[2-(4-methyl-piperazin-1-yl)-ethoxy]-phenyl}-amine] | 5.4 |
| Cc1cc(C#N)ccc1-n1ccc2cnc(Nc3ccc(N4CCN(C)CC4)nc3)nc21 [Example 439, 3-Methyl-4-{2-[6-(4-methyl-piperazin-1-yl)-pyridin-3-ylamino]-pyrrolo[2,3-d]pyrimidin-7-yl}-benzonitrile] | 19 |
| CC(O)c1ccc(-n2ccc3cnc(Nc4ccc(N5CCN(C)CC5)nc4)nc32)cc1 (stereo not shown) [Example 279, 1-(4-{2-[6-(4-Methyl-piperazin-1-yl)-pyridin-3-ylamino]-pyrrolo[2,3-d]pyrimidin-7-yl}-phenyl)-ethanol] | 4 |
| OC1CCN(Cc2ccc(Nc3ncc4ccn(-c5cc(F)c(CN6CCOCC6)c(F)c5)c4n3)cn2)C1 (racemic) [Example 388, 1-{5-[7-(3,5-Difluoro-4-morpholin-4-ylmethyl-phenyl)-7H-pyrrolo[2,3-d]pyrimidin-2-ylamino]-pyridin-2-ylmethyl}-pyrrolidin-3-ol] | ≤ 3 |
| CC(=O)N1CCN(Cc2ccc(Nc3ncc4ccn(-c5cc(F)c(C(=O)N6CCOCC6)c(F)c5)c4n3)cc2)CC1 [Example 323, 1-[4-(4-{7-[3,5-Difluoro-4-(morpholine-4-carbonyl)-phenyl]-7H-pyrrolo[2,3-d]pyrimidin-2-ylamino}-benzyl)-piperazin-1-yl]-ethanone] | 3.2 |
| CS(=O)(=O)c1ccc(-n2ccc3cnc(Nc4ccccc4)nc32)cc1 [Example 19, [7-(4-Methanesulfonyl-phenyl)-7H-pyrrolo[2,3-d]pyrimidin-2-yl]-phenyl-amine] | 6.9 |
| Cc1ccc(Nc2ncc3ccn(-c4ccc(C(=O)N5CCOCC5)c(F)c4)c3n2)cc1CN1CCNC2(CC2)C1 [Example 374, (4-{2-[3-(4,7-Diaza-spiro[2.5]oct-7-ylmethyl)-4-methyl-phenylamino]-pyrrolo[2,3-d]pyrimidin-7-yl}-2-fluoro-phenyl)-morpholin-4-yl-methanone] | 9.9 |
| Fc1cc(-n2ccc3cnc(Nc4ccncc4)nc32)cc(F)c1CN1CCOCC1 [Example 211, [7-(3,5-Difluoro-4-morpholin-4-ylmethyl-phenyl)-7H-pyrrolo[2,3-d]pyrimidin-2-yl]-pyridin-4-yl-amine] | 5.9 |
| Cc1ccc(Nc2ncc3ccn(-c4cc(F)c(CN5CCOCC5)c(F)c4)c3n2)cc1 [Example 325, [7-(3,5-Difluoro-4-morpholin-4-ylmethyl-phenyl)-7H-pyrrolo[2,3-d]pyrimidin-2-yl]-p-tolyl-amine] | 25 |
| CC(=O)N1CCN(Cc2ccc(Nc3ncc4ccn(-c5ccc(S(C)(=O)=O)cc5)c4n3)cc2)CC1 [Example 319, 1-(4-{4-[7-(4-Methanesulfonyl-phenyl)-7H-pyrrolo[2,3-d]pyrimidin-2-ylamino]-benzyl}-piperazin-1-yl)-ethanone] | < 3 |
